In article PMC6691761, “Potential multifunctional agents with anti-hepatoma and anti-inflammation properties by inhibiting NF-кB activation” (Journal of Enzyme Inhibition and Medicinal Chemistry, 2019):

How the values were obtained:
Assay type in all cases: cell-based
[1] = system: human acute mononuclear granulocyte leukaemia (THP-1); test: Cytotoxicity, MTT assay, THP-1; conditions: for IC50: MTT, 24 h; for THP-1 SI (selectivity index): quotient of IC50 towards LO2 cells
Description: (§1) Compounds 83–102 were screened against human neoplastic cell lines, such as human breast cancer cells (MCF-7), human colon cancer cells (HCT116), human lung carcinoma cells (A549), human gastric adenocarcinoma cells (SGC7901), human liver hepatocellular carcinoma cell line (HepG2), human cervical carcinoma cells (HeLa), human acute mononuclear granulocyte leukaemia (THP-1), and human normal hepatic cell line (LO2) using modified MTT assay. All the cells were obtained from the American Type Culture Collection (ATCC, Manassas, VA). The cells were cultured in DMEM or 1640. Positive controls (Doxorubicin (DOX) and Curcumin) and BAPs were initially dissolved in dimethyl sulphoxide (DMSO). Experimental concentration of DMSO was always 0.1% (v/v). The concentrations of BAPs and positive controls were 50, 20, 10, 5, 2.5, 1, 0.5, 0.1, 0.05, and 0.01 μg/mL.
(§2) The cells (1 × 10^4 cells/well) were seeded in a 96-well plate and incubated for 24 h. Cells treated with serial concentrations of drugs were incubated for another 24 h. After the media removed, 20 μL of MTT (5 mg/mL) solution was added and incubated for 4 h at 37 °C. The MTT solution was removed and then 150 μL of DMSO was added. The optical density was measured with a multi-well plate reader (TECAN, Mӓnnedorf, Switzerland) at 570 nm. The results are expressed as a decrease in the cell viability (%) in comparison to untreated controls. The concentration of each compound was examined in triplicate, and the IC50 values are expressed in Table 1.

[2] = system: human normal hepatic cell line (LO2); test: Toxicity to normal cells, MTT assay, LO2; conditions: 24 h
Description: as §1, §2

[3] = system: human liver hepatocellular carcinoma cell line (HepG2); test: Cytotoxicity, MTT assay, HepG2; conditions: for IC50: MTT, 24 h; for HepG2 SI (selectivity index): quotient of IC50 towards LO2 cells
Description: as §1, §2

[4] = system: human breast cancer cells (MCF-7); test: Cytotoxicity, MTT assay, MCF-7; conditions: for IC50: MTT, 24 h; for MCF-7 SI (selectivity index): quotient of IC50 towards LO2 cells
Description: as §1, §2

[5] = system: human gastric adenocarcinoma cells (SGC7901); test: Cytotoxicity, MTT assay, SGC7901; conditions: for IC50: MTT, 24 h; for SGC7901 SI (selectivity index): quotient of IC50 towards LO2 cells
Description: as §1, §2

[6] = system: human cervical carcinoma cells (HeLa); test: Cytotoxicity, MTT assay, HeLa; conditions: for IC50: MTT, 24 h; for HeLa SI (selectivity index): quotient of IC50 towards LO2 cells
Description: as §1, §2

[7] = system: human colon cancer cells (HCT116); test: Cytotoxicity, MTT assay, HCT116; conditions: for IC50: MTT, 24 h; for HCT116 SI (selectivity index): quotient of IC50 towards LO2 cells
Description: as §1, §2

[8] = system: human lung carcinoma cells (A549); test: Cytotoxicity, MTT assay, A549; conditions: for IC50: MTT, 24 h; for A549 SI (selectivity index): quotient of IC50 towards LO2 cells
Description: as §1, §2

| Structure (SMILES) | IC50 [1] | THP-1 SI (selectivity index) [1] | IC50 [2] | IC50 [3] | HepG2 SI (selectivity index) [3] | IC50 [4] | MCF-7 SI (selectivity index) [4] | IC50 [5] | SGC7901 SI (selectivity index) [5] | IC50 [6] | HeLa SI (selectivity index) [6] | IC50 [7] | HCT116 SI (selectivity index) [7] | IC50 [8] | A549 SI (selectivity index) [8] | further results |
| --- | --- | --- | --- | --- | --- | --- | --- | --- | --- | --- | --- | --- | --- | --- | --- | --- |
| CN1C/C(=C\c2cccc([N+](=O)[O-])c2)C(=O)/C(=C/c2cc(F)ccc2F)C1 [Compound 86] | 7 ± 0.2 µM | 3.0 | 21.3 ± 0.4 µM | 9.2 ± 0.4 µM | 2.3 | 11.1 ± 0.7 µM | 1.9 | 20.5 ± 0.5 µM | 1.0 | 11.5 ± 0.8 µM | 1.9 | 10.5 ± 0.9 µM | 2.0 | 9.3 ± 0.4 µM | 2.3 |  |
| CN1C/C(=C\c2cccc([N+](=O)[O-])c2)C(=O)/C(=C/c2ccccc2F)C1 [Compound 83, (3E,5E)-3–(2-fluorobenzylidene)-1-methyl-5–(3-nitrobenzylidene)piperidin-4-one] |  |  |  |  |  |  | 1.8 |  | 3.5 |  | 5.2 |  | 2.1 |  | 5.7 | IC50 ([1]; Homo sapiens, THP-1, 24 h): 1.3 ± 0.1 µM; IC50 ([2]; Homo sapiens): 13.1 ± 0.8 µM; IC50 ([3]; Homo sapiens, HepG2, 24 h): 1.2 ± 0.2 µM; IC50 ([4]; Homo sapiens, MCF7): 7.2 ± 0.3 µM; IC50 ([5]; Homo sapiens, SGC-7901): 3.7 ± 0.3 µM; IC50 ([6]; Homo sapiens, HeLa): 2.5 ± 0.3 µM; IC50 ([7]; Homo sapiens, HCT-116): 6.2 ± 0.6 µM; IC50 ([8]; Homo sapiens, A549, 24 h): 2.3 ± 0.2 µM |
| CN1CC(=Cc2cccc(N=Cc3ccc(Cl)c(Cl)c3)c2)C(=O)C(=Cc2ccccc2F)C1 [Compound 95] | 3.8 ± 0.1 µM | 2.9 | 11 ± 0.4 µM | 2.5 ± 0.1 µM | 4.4 | 5.4 ± 0.2 µM | 2.0 | 3.3 ± 0.5 µM | 3.3 | 4.3 ± 0.1 µM | 2.6 | 6.3 ± 0.2 µM | 1.7 | 3.1 ± 0.2 µM | 3.5 |  |
| CN1C/C(=C\c2cc(F)cc(F)c2)C(=O)/C(=C/c2cccc([N+](=O)[O-])c2)C1 [Compound 85] | 5.4 ± 0.3 µM | 3.8 | 20.3 ± 0.1 µM | 14.3 ± 0.1 µM | 1.4 | 18.5 ± 0.4 µM | 1.1 | 24.5 ± 0.8 µM | 0.8 | 14.2 ± 0.6 µM | 1.4 | 13.2 ± 0.5 µM | 1.5 | 9.7 ± 0.2 µM | 2.1 |  |
| COc1cc(/C=C2\CN(C)C/C(=C\c3ccc(F)cc3Br)C2=O)cc(OC)c1OC [Compound 88] | 7.6 ± 0.2 µM | 1.9 | 14.8 ± 0.3 µM | 5.3 ± 0.2 µM | 2.8 | 6.3 ± 0.4 µM | 2.3 | 3.6 ± 0.1 µM | 4.1 | 5.3 ± 0.3 µM | 2.8 | 6.5 ± 0.3 µM | 2.3 | 5.6 ± 0.3 µM | 2.6 |  |
| COc1ccccc1/C=C1\CN(C)C/C(=C\c2cc(OC)c(OC)c(OC)c2)C1=O [Compound 89] | 7.9 ± 0.3 µM | 1.7 | 13.6 ± 0.1 µM | 4.3 ± 0.1 µM | 3.2 | 9.7 ± 0.4 µM | 1.4 | 3.3 ± 0.3 µM | 4.1 | 5.3 ± 0.4 µM | 2.6 | 5.6 ± 0.1 µM | 2.4 | 4.9 ± 0.1 µM | 2.8 |  |
| COc1ccc(C=Nc2cccc(C=C3CN(C)CC(=Cc4ccccc4F)C3=O)c2)c(O)c1 [Compound 101] | 3.5 ± 0.2 µM | 4.0 | 13.9 ± 0.3 µM | 4.8 ± 0.1 µM | 2.9 | 4.7 ± 0.2 µM | 3.0 | 10.8 ± 0.1 µM | 1.3 | 8.9 ± 0.2 µM | 1.6 | 4.9 ± 0.1 µM | 2.8 | 3.5 ± 0.2 µM | 4.0 |  |
| COc1ccc(/C=C2\CN(C)C/C(=C\c3cc(OC)c(OC)c(OC)c3)C2=O)cc1 [Compound 90] | 5 ± 0.3 µM | 3.3 | 16.5 ± 0.1 µM | 8.2 ± 0.6 µM | 2.0 | 15.5 ± 0.9 µM | 1.1 | 7 ± 0.4 µM | 2.4 | 15.5 ± 0.2 µM | 1.1 | 12.1 ± 0.4 µM | 1.4 | 5.8 ± 0.2 µM | 2.8 |  |
| COc1cc(Br)c(O)c(C=Nc2cccc(C=C3CN(C)CC(=Cc4ccccc4F)C3=O)c2)c1 [Compound 102] | 5 ± 0.2 µM | 3.0 | 14.8 ± 0.1 µM | 5.9 ± 0.1 µM | 2.5 | 15.5 ± 1.2 µM | 1.0 | 7 ± 0.4 µM | 2.1 | 9.1 ± 0.2 µM | 1.6 | 18.1 ± 1.9 µM | 0.8 | 13.4 ± 0.7 µM | 1.1 |  |
| CN1CC(=Cc2cccc(N=Cc3ccc(O)cc3O)c2)C(=O)C(=Cc2ccccc2F)C1 [Compound 98] | 5.1 ± 0.2 µM | 3.5 | 17.6 ± 0.2 µM | 7.5 ± 0.1 µM | 2.3 | 10.3 ± 0.7 µM | 1.7 | 10.9 ± 0.3 µM | 1.6 | 6.2 ± 0.1 µM | 2.8 | 11.4 ± 0.7 µM | 1.5 | 3.2 ± 0.7 µM | 5.5 |  |
| COc1ccc(/C=C2\CN(C)C/C(=C\c3ccc(Cl)c(Cl)c3)C2=O)cc1 [Compound 91] | 7.2 ± 0.2 µM | 2.0 | 14.2 ± 0.3 µM | 4.5 ± 0.7 µM | 3.2 | 12.5 ± 0.5 µM | 1.1 | 6.4 ± 0.1 µM | 2.2 | 17 ± 1.3 µM | 0.8 | 18.1 ± 0.2 µM | 0.8 | 9.2 ± 0.1 µM | 1.5 |  |
